Assay results taken from patent publication US9499550B2 (BRISTOL-MYERS SQUIBB COMPANY, priority 2012, dated 2016).
Where two headings read alike, the source gives them in different places.

Assays:
[1] = test system: HCV genotype 1a (H77 strain) replicon in HUH-7 cells; assay: HCV replicon luciferase reporter assay, genotype 1a; format: cell-based; details: Hepatitis C virus, Huh-7, 72 h, HCV genotype 1a replicon luciferase, 3 days incubation
Procedure, shortened: (§1)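 Replicon inhibition for both genotypes was measured as Renilla luciferase signal (EnduRen, 7.5 μM final, 2 h) after 3-day, 37° C exposure of replicon-bearing HUH-7 cells in 4% FCS DMEM, 0.5% DMSO. The 1b construct carries S1179I; the 1a H77 construct carries P1496L and S2204I. Twenty-point, 3-fold dilutions were fitted four-parametrically for EC50, and CC50 was taken from multiplexed Cell Titer-Blue.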

[2] = test system: HCV genotype 1b (Con1) replicon in HUH-7 cells; assay: HCV replicon luciferase reporter assay, genotype 1b; format: cell-based; details: Hepatitis C virus, Huh-7, 72 h, HCV genotype 1b replicon luciferase, 3 days incubation
Procedure, shortened: as §1

[3] = GETYPE1A, read-out: LE_1a (EC50, range)
[4] = GETYPE1B, read-out: LE_1b (EC50, range)

Structure (SMILES)	EC50 [1, 3] [nM]	EC50 [2, 4] [nM]	EC50 ([1]; read-out: LE_1a (EC50, range)) [nM]	EC50 ([2]; read-out: LE_1b (EC50, range)) [nM]	EC50 ([1]; read-out: LE_1a (EC50)) [nM]	EC50 ([2]; read-out: LE_1b (EC50)) [nM]
CC[C@@H]1C[C@H](C)CC/C=C\[C@@H]2C[C@@]2(C(=O)NS(=O)(=O)C2(C)CC2)NC(=O)[C@@H]2C[C@@H](Oc3nc4cc(OC)ccc4nc3Cl)CN2C(=O)[C@H]1NC(=O)OC(C)(C)C(F)(F)F [Compound 4257]	5.01 to 35	0.51 to 1				
COc1ccc2nc(C(C)C)c(O[C@@H]3C[C@H]4C(=O)N[C@]5(C(=O)NS(=O)(=O)C6(C)CC6)C[C@H]5/C=C\CC[C@@H](C)C[C@@H](C)[C@H](NC(=O)OC(C)(C)C(F)(F)F)C(=O)N4C3)nc2c1 [Compound 4259]	1.01 to 5	0.51 to 1				
COc1ccc2nc(O[C@@H]3C[C@H]4C(=O)N[C@]5(C(=O)NS(=O)(=O)C6(C)CC6)C[C@H]5/C=C\CC[C@@H](C)C[C@@H](C)[C@H](NC(=O)OC(C)(C)C)C(=O)N4C3)c(-c3ccc(OC(C)C)cc3)nc2c1 [Compound 4260, tert-butyl ((2R,6S,7R,9R,13aS,14aR,16aS,Z)-2-((3-(4-isopropoxyphenyl)-6-methoxyquinoxalin-2-yl)oxy)-7,9-dimethyl-14a-(((1-methylcyclopropyl)sulfonyl)carbamoyl)-5,16-dioxo-1,2,3,5,6,7,8,9,10,11,13a,14,14a,15,16,16a-hexadecahydrocyclopropa[e]pyrrolo[1,2-a][1,4]diazacyclopentadecin-6-yl)carbamate]			1.01 to 5	1.01 to 5		
COc1ccc2nc(O[C@@H]3C[C@H]4C(=O)N[C@]5(C(=O)NS(=O)(=O)C6(C)CC6)C[C@H]5/C=C\CC[C@@H](C)C[C@@H](C)[C@H](NC(=O)OC(C)(C)C(F)(F)F)C(=O)N4C3)c(-c3ccc(OC(C)C)cc3)nc2c1 [Compound 4261]	5.01 to 35	1.01 to 5				
CC[C@@H]1C[C@H](C)CC/C=C\[C@@H]2C[C@@]2(C(=O)NS(=O)(=O)C2CC2)NC(=O)[C@@H]2C[C@@H](Oc3nc4cc(OC)ccc4nc3O)CN2C(=O)[C@H]1NC(=O)OC(C)(C)C [Compound 4262]			35 to 620	35 to 620		
CC[C@@H]1C[C@H](C)CC/C=C\[C@@H]2C[C@@]2(C(=O)NS(=O)(=O)C2CC2)NC(=O)[C@@H]2C[C@@H](Oc3nc4cc(OC)ccc4nc3C(F)(F)F)CN2C(=O)[C@H]1NC(=O)OC(C)(C)C(F)(F)F [Compound 4263]	1.01 to 5	0.51 to 1				
CC[C@@H]1C[C@H](C)CC/C=C\[C@@H]2C[C@@]2(C(=O)NS(=O)(=O)C2CC2)NC(=O)[C@@H]2C[C@@H](Oc3nc4cc(OC)c(F)cc4nc3O)CN2C(=O)[C@H]1NC(=O)OC(C)(C)C [Compound 4265, tert-butyl ((2R,6S,7R,9R,13aS,14aR,16aS,Z)-14a-((cyclopropylsulfonyl)carbamoyl)-7-ethyl-2-((6-fluoro-3-hydroxy-7-methoxyquinoxalin-2-yl)oxy)-9-methyl-5,16-dioxo-1,2,3,5,6,7,8,9,10,11,13a,14,14a,15,16,16a-hexadecahydrocyclopropa[e]pyrrolo[1,2-a][1,4]diazacyclopentadecin-6-yl)carbamate]			35 to 620	35 to 620	616	475
CC[C@@H]1C[C@H](C)CC/C=C\[C@@H]2C[C@@]2(C(=O)NS(=O)(=O)C2CC2)NC(=O)[C@@H]2C[C@@H](Oc3nc4cc(OC)c(F)cc4nc3C(F)(F)F)CN2C(=O)[C@H]1NC(=O)OC(C)(C)C [Compound 4266, tert-butyl ((2R,6S,7R,9R,13aS,14aR,16aS,Z)-14a-((cyclopropylsulfonyl)carbamoyl)-7-ethyl-2-((6-fluoro-7-methoxy-3-(trifluoromethyl)quinoxalin-2-yl)oxy)-9-methyl-5,16-dioxo-1,2,3,5,6,7,8,9,10,11,13a,14,14a,15,16,16a-hexadecahydrocyclopropa[e]pyrrolo[1,2-a][1,4]diazacyclopentadecin-6-yl)carbamate]			1.01 to 5	1.01 to 5		
CC[C@@H]1C[C@H](C)CC/C=C\[C@@H]2C[C@@]2(C(=O)NS(=O)(=O)C2CC2)NC(=O)[C@@H]2C[C@@H](Oc3nc4cc(OC)c(F)cc4nc3C(F)(F)F)CN2C(=O)[C@H]1NC(=O)OC(C)(C)C(F)(F)F [Compound 4267]	5.01 to 35	1.01 to 5				
